# Results: article PMC2212116 (The Journal of Experimental Medicine, 1998)
# System: mouse and human MHC class II molecules
# Experiment: Competitive assay for MHC class II binding, alleles taken together
# Conditions: competition with known conventional peptide antigens that bind to the class II groove
substance,measurement,value
"H2B10–33: epitope for other pathogenic Th cells of lupus, localized in histone H2B10–33",binding to class II alleles (in words),did not show promiscuous binding
